For one compound, water uptake results are on record in US20040224014A1, “Non-hygroscopic pharmaceutical compositions containing non-hydrated quinoline carboxylic acids” (The Jordanian pharmaceutical manufacturing Co., priority 2003, published 2004).

A short description of this data set: Water uptake of norfloxacin and its formulations (FIG. 1). Type of data set: physicochemical. As to conditions: depending on manufacturing procedure (wet or dry granulation) and storage temperature and humidity. The source says:
The water uptake for norfloxacin and its formulations may reach up to 30% and more depending on the manufacturing procedures (wet or dry granulation), and storage conditions of temperature and humidity (see FIG. 1).

In the case of `CCn1cc(C(=O)O)c(=O)c2cc(F)c(N3CCNCC3)cc21` [norfloxacin], the water uptake is approximately 30%.
